Laboratory results reported in patent US20250082766A1, “TREATMENT OF BRAIN TUMORS BY TARGETING THE CHOLESTEROL PATHWAY IN ASTROCYES” (Ramot at Tel-Aviv University Ltd., priority 2022, published 2025).

Key:
LDLR [1] = assay: LDLR expression by immunoblot in glioma cells treated with LXR agonist; assay type: cell-based, mouse; settings: GL261 and CT-2A cells; 24-OHC vs Mock (DMSO); FIGS. 5H-I
Protocol: FIGS. 5A-N illustrate that astrocyte-derived cholesterol supports glioma survival. (FIGS. 5A-D) Real-time changes in the ECAR (FIGS. 5A-B) and oxygen consumption rate (OCR) (FIGS. 5C-D) of GL261 glioma cells, cultured in media supplemented with full serum (FCS, fetal calf serum) or lipoprotein-deprived serum (LPDS, Lipoprotein-deficient serum) for 18 hours and measured using Seahorse. Oligo, oligomycin; FCCP, carbonyl cyanide4-(trifluoromethoxy) phenylhydrazone; R/A, rotenone plus antimycin A; 2-DG, 2-deoxy-d-glucose. Glycolysis, glycolytic capacity and glycolytic reserve were extracted from the ECAR reading, and basal respiration, adenosine triphosphate (ATP) production, Maximal respiration, and spare respiratory capacity were determined based on OCR. […] (FIG. 5E) Percentage of cell death of GL261 and CT-2A glioma cells, or primary astrocytes, cultured in FCS or LPDS for 5 days; as determined by Annexin-V assay (n=5 independent experiments). […] Representative flow cytometry plots of Annexin-V/DAPI staining from each group are shown in FIG. 5F and quantification analyses of cholesterol rescue are in FIG. 5G (n=5 biologically independent experiments). […] (FIG. 5N) quantification analyses of human U87EGFRvIII (U87) glioma cells co-cultured with human primary astrocytes for 5 days (n=3 biologically independent experiments). […]

[2] = system: GL261 and CT-2A glioma cells; assay: Cell viability assay (Annexin V/DAPI FACS) of glioma cells; assay type: cell-based, mouse; settings: 24-OHC for 72 hours; GL261 and CT-2A glioma cell lines; FIGS. 5J-K
Protocol: FIGS. 5A-N illustrate that astrocyte-derived cholesterol supports glioma survival. (FIGS. 5A-D) Real-time changes in the ECAR (FIGS. 5A-B) and oxygen consumption rate (OCR) (FIGS. 5C-D) of GL261 glioma cells, cultured in media supplemented with full serum (FCS, fetal calf serum) or lipoprotein-deprived serum (LPDS, Lipoprotein-deficient serum) for 18 hours and measured using Seahorse. Oligo, oligomycin; FCCP, carbonyl cyanide4-(trifluoromethoxy) phenylhydrazone; R/A, rotenone plus antimycin A; 2-DG, 2-deoxy-d-glucose. Glycolysis, glycolytic capacity and glycolytic reserve were extracted from the ECAR reading, and basal respiration, adenosine triphosphate (ATP) production, Maximal respiration, and spare respiratory capacity were determined based on OCR. Data are representative of two independent experiments (n=6 technical replicates per experiment). (FIG. 5E) Percentage of cell death of GL261 and CT-2A glioma cells, or primary astrocytes, cultured in FCS or LPDS for 5 days; as determined by Annexin-V assay (n=5 independent experiments). […] Representative flow cytometry plots of Annexin-V/DAPI staining from each group are shown in FIG. 5F and quantification analyses of cholesterol rescue are in FIG. 5G (n=5 biologically independent experiments). (FIGS. 5H-K) Representative images and quantification of LDLR expression (Immunoblot, FIGS. 5H-I) and cell death via FACS analysis of Annexin V/DAPI staining (FIGS. 5J-K) in response to endogenous LXR agonists (24-OHC) or Mock (DMSO) treatment in GL261 and CT-2A cells (n=3 biologically independent experiments). […] (FIGS. 5L-M) Representative flow cytometry plots of murine GL261 and CT-2A glioma cells co-cultured for 5 days with primary mouse astrocytes are shown in FIG. 5L and quantification analyses in FIG. 5M (n=4 biologically independent experiments). (FIG. 5N) quantification analyses of human U87EGFRvIII (U87) glioma cells co-cultured with human primary astrocytes for 5 days (n=3 biologically independent experiments). […]

glioma [3] = settings: OXPHOS-targeting drugs; cited from earlier work
[4] = system: tumours with EGFR or IDH1 mutations; settings: patient-derived GBM xenograft mice; cited from earlier work
[5] = target: cholesterol transporter ABCA1 (Homo sapiens, UniProt O95477); settings: cited from earlier work
GL261 glioma (GBM) = assay: Primary GBM model: GL261 intracranially implanted mice treated with Probucol; assay type: in vivo, mouse; settings: summary statement on ABCA1 inhibitors; FIGS. 16A-E
Protocol: (FIG. 16A) Illustration of the experimental design for primary and recurrent GBM models. (FIGS. 16B-D) WT mice were intracranially (IC) implanted with GL261 cells. Tumor-bearing mice were treated daily, starting at day 10, with Probucol (30 mg/kg) or vehicle. (FIG. 16B) Tumor growth curve as determined by IVIS, (FIG. 16C) mice weight loss, and (FIG. 16D) Kaplan-Meier curves assess overall survival. p-value by Two-way ANOVA. Data represent Mean±SEM, 8 mice/group. (FIG. 16E) Illustration of the predicted effects of probucol or glyburide in the different models/disease stages.
For intracranial mouse glioma, mice were anesthetized, positioned in a Stereotaxic Alignment System, and injected with 1.5×10^4 GL261 or CT-2A cells in 2 μl of DMEM. Injections were made to the right frontal lobe, approximately 2.5 mm lateral and 0.1 mm caudal from bregma at a depth of 3 mm. In-vivo bioluminescence imaging, following XenoLight D-luciferin Potassium Salt administration (150 mg/kg) i.p. administration, was determined using IVIS Spectrum system (PerkinElmer). Ganciclovir (GCV, Cymevene, Roche #SAP-10051872; 25 mg/kg), Diphtheria-toxin (DT, Sigma-Aldrich, #D0564; 1100 ng/mice), or vehicle control (PBS) were administered daily following tumor establishment (day 10), as previously described (Mayo, L., et al. Nat Med (2014) 20: 1147-1156). CD8^+ T cell depletion was performed using an anti-CD8 monoclonal antibody ([…], Bioxcell) or an isotype control monoclonal antibody (2A3, Bioxcell), as previously described (Takenaka, M. C. et al. Control of tumor-associated macrophages and T cells in glioblastoma via AHR and CD39. Nat Neurosci 22, 729-740 (2019)). GBM-bearing mice were intraperitoneally injected (0.1 mg/mouse) with an anti-CD8 or an isotype control mAbs, 1 day before, and 7 days after, GCV administration. CD8 T-cell depletion was validated by FACS analysis using a Sony SH800 FACS instrument (Sony Biotechnology). Data analysis was performed using FlowJo v10 (TreeStar, USA). The following reagents were used for analysis: anti-CD45 (1:100; 30-F11, Biolegend, #103106), anti-CD3[…] (1:50; 145-2C11, Biolegend #100335), and anti-CD8a (1:100; 53-6.7, Biolegend, #100765).
To investigate this hypothesis, C57Bl/6 mice are implanted with GFP^+ luciferase-expressing glioma cells (GL261 or CT-2A), using two subtype models—primary or recurrent GBM/brain tumor resection (as illustrated in FIG. 16A), and are treated daily with probucol, glyburide, or vehicle control, with or without a potent statin (e.g., simvastatin as shown in FIG. 15A). The dosage of the different drugs is optimized based on FDA guidelines for conversions from human-accepted dosages (Table 5 below).
In the primary GBM model (pGBM)—10 days after tumor implantation, the mice are treated with cholesterol-lowering drugs (FIG. 16A). In the recurrent GBM model (rGBM), 12-14 days after inoculation of the mice with the tumor cells, the visible tumor(s) are surgically removed, based on GFP expression, under a stereoscope. The mice are then allowed to recover for a week and then are treated with cholesterol-lowering drugs (FIG. 16A). Of note, tumor formation or recurrence is monitored by bioluminescence (BLI) signals from the tumor cells on in-vivo imaging system (IVIS) spectrum and quantified with Living Image software. Mice are monitored for tumor growth, peritumoral brain edema formation, and mouse survival until the experimental endpoint (extreme lethargy or body weight reduction of greater than 20%), or are euthanized seven days after treatment with the cholesterol-lowering drugs to assess tumor burden, angiogenesis, BBB stability, and immunomodulatory activity in-situ. Tumor volume is evaluated in-vivo by determining tumor BLI, and by histopathology analysis postmortem. Peritumoral brain edema is evaluated in-vivo using IVISense™ Edema (Superhance™ 680) fluorescent probe. […]

[6] = system: murine GL261 glioma cells co-cultured with astrocytes; assay: LPDS-induced glioma cell death in astrocyte-glioma co-cultures with cholesterol-lowering drugs, Annexin-V assay; assay type: cell-based, mouse; settings: cholesterol-deprived (LPDS) astrocyte-GL261 co-cultures, FIGS. 15A-D, n=2
Source text: FIGS. 15A-D illustrate that cholesterol-lowering drugs inhibit astrocyte-mediated rescue of glioma cells from cholesterol deprivation. Analysis of LPDS-induced glioma cell death, co-cultured with astrocytes, in the presence of absence of cholesterol-lowering drugs, by Annexin-V assay. (FIGS. 15A-C) Representative flow cytometry plots of murine GL261 treated with statins (FIG. 15A) or ABCA1 inhibitors Probucol (FIG. 15B), and Glyburide (FIG. 15C), and this quantification analyses (FIG. 15D). n=2 biologically independent experiments.
Moreover, statins and probucol, or glyburide, target different nodes in the cholesterol efflux mechanism (synthesis and extracellular export). Therefore, the present inventor further tests whether the combinations of the two drug groups would have a synergistic effect on glioma viability.

glioma [7] = settings: experimental glioma mouse models; cited from earlier work
LDLR [8] = assay: LDLR levels (immunoblot) in GL261 cells treated with conditioned media of PCSK9-transduced astrocytes; assay type: cell-based, mouse; settings: astrocyte-conditioned media (wild type PCSK9-encoding vs empty lentivirus), 24 hours; FIG. 21B
Protocol: FIGS. 21A-D illustrate that PCSK9 overexpression in the cancer microenvironment halts glioma progression. (FIG. 21A) Box plot analysis of TCGA gene expression for PCSK9 in normal (Norm; n=207), GBM patients (n=163), or low-grade glioma (LGG, n=518). n represents the number of patients per group. (FIG. 21B) Astrocytes were transduced with wild type PCSK9-encoding or empty lentivirus, and 24 hours later, the media was collected and transferred to glioma cells. Representative immunoblot analyses comparing LDLR and ACTIN levels in GL261 glioma cells treated with the astrocyte-conditioned media for 24 hours. (n=2 biologically independent experiments). […] PCSK9-encoding or empty lentiviruses were injected into the TME of GL261-bearing mice 9 and 15 days after tumor implantation. (FIG. 21C) Analysis of tumor size, based on tumor bioluminescence. (FIG. 21D) Kaplan-Meier curves assessing overall survival of these groups. Data are representative of two independent experiments with n=6 mice/group. Data are shown as mean±s.e.m. P values were determined by two-sided Student's t-tests (FIG. 21A), two-way ANOVA (FIG. 21C), or Log rank (Mantel-Cox) test (FIG. 21D). *P<0.05, **P<0.01, ***P<0.001.
Cells were lysed in RIPA buffer supplemented with protease inhibitors (Cell Signaling). […] Quantification was done using Image Studio Lite software version 5.2 (LI-COR Biosciences).

Chain of cholesterol transporter ABCA1 (O95477 whole entry): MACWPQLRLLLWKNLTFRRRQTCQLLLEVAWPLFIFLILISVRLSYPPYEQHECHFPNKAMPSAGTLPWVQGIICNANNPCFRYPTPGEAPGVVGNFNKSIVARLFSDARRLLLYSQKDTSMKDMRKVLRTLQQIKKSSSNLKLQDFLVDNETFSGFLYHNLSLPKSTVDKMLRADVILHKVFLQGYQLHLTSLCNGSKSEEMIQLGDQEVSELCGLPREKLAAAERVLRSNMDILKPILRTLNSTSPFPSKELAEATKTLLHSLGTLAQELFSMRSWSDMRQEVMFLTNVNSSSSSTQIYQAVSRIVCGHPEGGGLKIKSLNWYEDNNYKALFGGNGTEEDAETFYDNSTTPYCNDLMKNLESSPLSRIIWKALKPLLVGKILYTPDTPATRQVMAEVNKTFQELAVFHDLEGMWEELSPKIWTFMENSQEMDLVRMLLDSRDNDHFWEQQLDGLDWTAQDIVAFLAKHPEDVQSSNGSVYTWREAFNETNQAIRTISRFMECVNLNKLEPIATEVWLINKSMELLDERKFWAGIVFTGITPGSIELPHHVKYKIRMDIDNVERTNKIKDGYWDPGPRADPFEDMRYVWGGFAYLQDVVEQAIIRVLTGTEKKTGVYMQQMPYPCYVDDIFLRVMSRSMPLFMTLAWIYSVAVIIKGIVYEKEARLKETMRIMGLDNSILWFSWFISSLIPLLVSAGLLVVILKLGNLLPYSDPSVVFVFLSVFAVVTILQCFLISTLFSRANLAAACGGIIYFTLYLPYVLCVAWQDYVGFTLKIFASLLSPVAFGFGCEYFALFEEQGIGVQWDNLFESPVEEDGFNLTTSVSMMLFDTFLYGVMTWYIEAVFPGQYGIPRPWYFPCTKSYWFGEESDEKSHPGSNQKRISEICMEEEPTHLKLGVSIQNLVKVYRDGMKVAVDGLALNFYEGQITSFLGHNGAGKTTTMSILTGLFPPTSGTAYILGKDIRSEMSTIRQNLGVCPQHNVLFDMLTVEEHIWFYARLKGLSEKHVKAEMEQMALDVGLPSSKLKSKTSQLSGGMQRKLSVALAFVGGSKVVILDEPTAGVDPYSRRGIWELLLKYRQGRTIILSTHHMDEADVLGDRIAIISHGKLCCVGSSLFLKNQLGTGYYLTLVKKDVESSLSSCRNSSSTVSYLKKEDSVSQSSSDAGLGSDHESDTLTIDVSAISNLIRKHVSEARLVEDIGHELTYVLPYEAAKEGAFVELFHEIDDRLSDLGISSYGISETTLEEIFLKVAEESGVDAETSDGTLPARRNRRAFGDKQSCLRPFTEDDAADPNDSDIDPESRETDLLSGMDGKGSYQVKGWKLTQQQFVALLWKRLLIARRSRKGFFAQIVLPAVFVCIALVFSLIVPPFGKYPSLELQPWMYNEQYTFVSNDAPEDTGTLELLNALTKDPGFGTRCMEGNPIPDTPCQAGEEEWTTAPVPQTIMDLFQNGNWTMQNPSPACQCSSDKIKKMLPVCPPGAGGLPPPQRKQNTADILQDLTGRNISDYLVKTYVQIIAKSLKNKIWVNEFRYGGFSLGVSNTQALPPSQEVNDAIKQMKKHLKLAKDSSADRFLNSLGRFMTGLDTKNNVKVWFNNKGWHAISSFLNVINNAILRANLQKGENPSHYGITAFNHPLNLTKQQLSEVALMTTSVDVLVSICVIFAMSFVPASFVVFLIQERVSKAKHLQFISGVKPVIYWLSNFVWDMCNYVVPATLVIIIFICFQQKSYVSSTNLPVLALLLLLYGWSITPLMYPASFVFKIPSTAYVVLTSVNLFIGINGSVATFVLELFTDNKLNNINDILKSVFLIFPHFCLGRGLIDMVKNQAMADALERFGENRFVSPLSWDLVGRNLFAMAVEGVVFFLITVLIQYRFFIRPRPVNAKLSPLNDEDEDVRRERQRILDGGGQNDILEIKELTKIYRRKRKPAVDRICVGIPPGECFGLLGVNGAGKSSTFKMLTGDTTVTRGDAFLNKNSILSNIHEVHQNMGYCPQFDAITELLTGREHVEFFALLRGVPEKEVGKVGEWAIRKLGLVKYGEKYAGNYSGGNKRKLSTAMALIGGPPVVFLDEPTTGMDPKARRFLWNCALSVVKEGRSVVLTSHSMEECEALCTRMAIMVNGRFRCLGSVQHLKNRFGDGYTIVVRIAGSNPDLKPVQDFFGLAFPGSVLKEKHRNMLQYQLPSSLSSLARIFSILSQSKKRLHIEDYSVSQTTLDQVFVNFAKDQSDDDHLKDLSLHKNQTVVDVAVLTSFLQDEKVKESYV

## CC(C)[C@@H](O)CC[C@@H](C)[C@H]1CC[C@H]2[C@@H]3CC=C4C[C@@H](O)CC[C@]4(C)[C@H]3CC[C@]12C [24-OHC, 24(S)-hydroxycholesterol]
LDLR [1]
  LDLR expression (degradation): dose-dependent LDLR degradation
[2]
  glioma cell death: dramatic cell death

## CCc1n(CC(=O)O[C@@H]2C[C@H](C)CC[C@H]2C(C)C)c2ccccc2[n+]1C.[Cl-] [Gboxin]
Glioma [3]
  glioma proliferation and cell death: inhibit glioma proliferation and induce cell death
[4]
  growth of tumours: suppresses the growth of tumours

## COc1ccc(Cl)cc1C(=O)NCCc1ccc(S(=O)(=O)NC(=O)NC2CCCCC2)cc1 [Glyburide]
[5]
  ABCA1 inhibitor potency: potent
GL261 glioma (GBM)
  survival of subjects having GBM in-vivo: prolonging survival
  tumor size of subjects having GBM in-vivo: decreasing tumor size
  weight loss of subjects having GBM in-vivo: preventing weight loss
[6]
  attenuation of the astrocyte-dependent rescue of glioma cells from cholesterol deprivation (glioma cell death), relative efficiency: the most potent

## FC(F)(F)c1ccc(CNc2ccc(Cc3c[nH]c4ncc(Cl)cc34)cn2)cn1 [PLX3397]
Glioma [7]
  glioma expansion: reduces glioma expansion

## PCSK9: wild type PCSK9 secreted into astrocyte-conditioned medium by lentivirus-transduced astrocytes
LDLR [8]
  levels of LDLR in GL261 glioma cells: decreased levels of LDLR
